Laboratory results as given in patent publication US10207002B2, “Sustained release formulation and tablets prepared therefrom” (Merck Sharp & Dohme Corp., priority 2015, dated 2019).

Columns and labels:
[1] = Solubility in a basic environment, such as the intestine; type: physicochemical
[2] = Bioavailability on co-administration with a proton-pump inhibitor; type: in vivo; conditions: co-administered with a proton-pump inhibitor

Solubility [1]	Bioavailability [2]	SMILES
poorly soluble	sharp drop in bioavailability	COCCOc1ccc(N2CCN(CCn3ncc4c3nc(N)n3nc(-c5ccco5)nc43)CC2)cc1 [Formula IA, preladenant]
poorly soluble		CC#Cc1nc2c3cnn(CCN4CCN(c5cc6c(C)noc6cc5F)CC4)c3nc(N)n2n1 [Formula IB]
